Assay results taken from US20130023485A1, “PARENTERAL FORMULATIONS OF PEPTIDES FOR THE TREATMENT OF SYSTEMATIC LUPUS ERYTHEMATOSUS” (Teva Pharmaceutical Industries, Ltd., priority 2003, published 2013).
Read-outs that look alike come from different tables or passages of the source.

Key:
SLE subjects = assay: Phase Ia clinical study, single s.c. dose, tolerability and safety; assay type: in vivo, human
Procedure: Thirty-six (36) subjects participated in the study. To be eligible for inclusion in the study, SLE patients must have fulfilled at least four criteria used for the diagnosis of lupus by the American College of Rheumatology. Patients must also have had stable, mild/moderate disease and score less than or equal to 10 on the SLE Disease Activity Index, SLEDAI. […] A standard battery of safety tests, including blood and urine collection for laboratory tests, was performed at screening, during the day of dosing, at 24 hours post-dose and at 2, 4 and 8 weeks following dosing. Prior to dosing, and on scheduled follow-up visits, blood samples were withdrawn for SLE-related immunological tests, anti-Compound 1 antibodies and PBL proliferation assay. […] The following safety parameters were assessed at Screening, during the hospitalization and at follow-up visits including Termination visit: vital signs (systolic blood pressure, diastolic blood pressure, pulse, oxygen saturation, temperature and weight), 12-lead ECG, change in physical examination and clinical routine laboratory safety tests. Adverse events were recorded at the Dosing Day and at each visit thereafter. SLE-related immunological tests were performed at Screening, during the hospitalization and at follow-up visits including Termination visit. […] Disease activity assessment using the SLE disease activity index score, year 2000 updated (SLEDAI 2K) was assessed at Screening, during the hospitalization and at follow-up visits including Termination visit.

[1] = system: PBL of SLE patients stimulated with phytohemagglutinin (PHA); assay: Proliferation of PBL stimulated with mitogen PHA; assay type: cell-based, human; settings: PHA 2 μg/ml; PBL of one SLE patient, FIG. 9
Procedure: To this end the peptides hCDR1 or hCDR3 were added to cultures of PBL of SLE patients that were stimulated with the mitogen phytohemagglutinin (PHA, 2 μg/ml).

[2] = system: PBL of SLE patients stimulated with human 16/6Id mAb; assay type: cell-based; settings: for inhibition of proliferative responses to human 16/6Id mAb: PBL of one SLE patient
Procedure: Cells were then harvested and radioactivity was counted using a β-counter. Results were expressed as mean counts per minute (cpm) of triplicate cultures. Stimulation indices (the ratio of mean cpm at the optimal concentration of 16/6Id to mean cpm without 16/6Id) were then calculated. A stimulation index (SI)≧2 was considered positive. […] Inhibition of above 50% of the proliferative capacity was considered positive. The Table represents the highest positive inhibition capacity for each peptide. […] Both peptides inhibited the proliferation of PBL of 18/19(95%) of responders tested. It can also be seen in the Table that the magnitudes of inhibitions were similar for both peptides. Thus, it can be concluded that peptides based on CDR1 and CDR3 of the human 16/6Id mAb are efficient inhibitors of the proliferation of PBL of SLE patients to the human 16/6Id mAb.

[3] = Solubility of Compound 1 with solubility enhancers (visual examination and analytical assay)
[4] = Mouse toxicity study of formulation; assay type: in vivo; settings: 30% (w/w) PEG 400 formulation
Text: Thus, it was decided not to further pursue this formulation. In view of the preliminary experiments non-aqueous solvents were not used in the subject formulations.

[5] = system: IL-2 secretion by PBL of SLE patients; assay: Inhibition of IL-2 secretion by PBL stimulated with human 16/6Id mAb (CTLL line); assay type: cell-based
Procedure: It was of interest to find out whether the hCDR peptides are capable of inhibiting IL-2 secretion by PBL of SLE patients following stimulation with the human 16/6Id mAb. […] To this end, PBL of SLE patients were incubated with the human 16/6Id mAb in the absence or presence of the peptides hCDR1 or hCDR3. Supernatants of the cultures were collected following 48 hours of incubation. Assays to determine levels of IL-2 in the supernatants were performed using the CTLL IL-2 dependent line. Briefly, cells of the CTLL line (2×10^4/well) were incubated in the presence of the different supernatants for 24 hours, followed by the addition of ^3H-thymidine for an additional 18-hour incubation period. Cells were then harvested and radioactivity counted using a β-counter. Results were calculated based on recombinant human IL-2 used as a standard. The ability of the peptides to inhibit the IL-2 secretion of PBL of 23 responders stimulated by the human 16/6 Id was tested. […] Inhibition of proliferative responses of PBL directly correlated with IL-2 inhibition by the CDR-based peptides.

[6] = system: Balb/c mice and (NZB×NZW)F1 mice; settings: cited from earlier work
[7] = Biological activity of chosen Compound 1 formulations
Text: The pH was adjusted if needed.

[8] = single s.c. 0.5, 1 or 2.5 mg in Captisol®

H-GYYWSWIRQPPGKGEEWIG-OH [Compound 1]
QTc change from baseline (SLE subjects; [8]): no QTc change from baseline>60 msec | categorical ECG measurements and digitized ECG parameters versus placebo (SLE subjects; [8]): No differences of clinical significance | hematology, biochemistry or urinalysis values (SLE subjects; [8]): No clinically significant effect | incidence of AEs versus placebo (SLE subjects; [8]): no prominent difference | physical exam (SLE subjects; [8]): No clinically significant effects | serious or severe adverse events (SLE subjects; [8]): No serious adverse event (SAE) or AE classified as severe occurred | temperature and weight (SLE subjects; [8]): No clinically significant effect | vital signs (systolic, diastolic blood pressure, pulse, oxygen saturation) (SLE subjects; [8]): No clinically significant effect | immunological response to tetanus toxoid (TTX) recall antigen (SLE subjects; single s.c. dose in Captisol®): did not change | safety and tolerability (SLE subjects; single s.c. dose of 0.5, 1 or 2.5 mg in 120 mg Captisol®): safe and well tolerated | inhibition of proliferative responses to mitogen PHA [1]: could not inhibit | Percent Inhibition of proliferation, Mean ± SD [2]: 68.12 ± 9.57% | inhibition of proliferative responses to human 16/6Id mAb ([2]; FIG. 10): inhibited efficiently | inhibition of proliferative responses to human 16/6Id mAb ([2]; FIG. 11): did inhibit efficiently | responders whose PBL proliferation was inhibited (above 50%) ([2]; of the 19 responders tested): 84.2% | solubility ([3]; 30% (w/w) PEG 400): 5000 to 9000 µg/mL | solubility ([3]; 30% DMA (dimethyl-acetamide) solution): 5000 to 9000 µg/mL | solubility ([3]; Human Serum Albumin solution): 1000 µg/mL | solubility ([3]; Hydroxypropyl-β-cyclodextrin solution): ~10000 µg/mL | solubility ([3]; L-Arginine, resulting pH above 9): at the desired level | solubility ([3]; Polysorbate 20 / Polysorbate 80 solution, up to 10%): ≤ 2000 µg/mL | solubility ([3]; Sulfobutylether-β-cyclodextrin (Captisol) solution): ~2500 µg/mL | effect on solubility ([3]; bulking agents Mannitol, Sorbitol, Dextran, alone and combined): did not improve the solubility | stability versus pH ([3]; initial tests, limits of desired pH levels): less stable at the basic pH range | effect on solubility ([3]; non aqueous solvents Ethanol, Glycerin, Propylene glycol, Chremophore and combinations): did not increase the solubility | adverse effects [4]: may have been the cause of some adverse effects | patients whose PBL IL-2 secretion was inhibited / tested ([5]; 23 responders): 21/23 | Maximum inhibition % ([5]; IL-2 secretion with 16/6 Id alone = 100%): 84 ± 31% | Inhibitory Activity* % (patients with inhibition of 50% or more) ([5]; PBL of 23 responders): 91 (21/23) % | inhibition of IL-2 secretion ([5]; PBL of one SLE patient, FIG. 12): 100% | 16/6 Id specific antibody response [6]: no effect | SLE related findings (immune complex deposits in the kidney, proteinuria, leukopenia) [6]: significantly reduced | biological activity ([7]; 30% (w/w) PEG 400 formulation): inactive | biological activity ([7]; formulations with acetate buffer and citrate buffer (Mannitol as tonicity agent)): active | biological activity ([7]; the two cyclodextrin formulations (Hydroxypropyl-β-cyclodextrin, Captisol)): equal to the activity of the peptide alone
